Assay results: PubChem BioAssay (NCI)
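Cultured in 96-well plates, cells were exposed to test compound for 48 hours across five concentrations. At the GI50, growth is halved. TGI denotes the concentration required for complete inhibition of growth.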

Key:
Test in all cases: NCI anticancer screen, dose series, 48 h
UO-31 renal = system: UO-31 renal
NCI-H23 lung = system: NCI-H23 lung
A549 NSCLC = system: A549 NSCLC
SF-268 CNS = system: SF-268 CNS
RPMI-8226 leukemia = system: RPMI-8226 leukemia
M14 melanoma = system: M14 melanoma
SR leukemia = system: SR leukemia
HS 578T breast = system: HS 578T breast
MOLT-4 leukemia = system: MOLT-4 leukemia
SK-MEL-5 melanoma = system: SK-MEL-5 melanoma
SK-MEL-28 melanoma = system: SK-MEL-28 melanoma
NCI-H226 lung = system: NCI-H226 lung
COLO 205 colon = system: COLO 205 colon
MALME-3M melanoma = system: MALME-3M melanoma
OVCAR-8 ovarian = system: OVCAR-8 ovarian
K-562 leukemia = system: K-562 leukemia
HOP-62 NSCLC = system: HOP-62 NSCLC
UACC-62 melanoma = system: UACC-62 melanoma
DU-145 prostate = system: DU-145 prostate
HOP-92 NSCLC = system: HOP-92 NSCLC
IGROV1 ovarian = system: IGROV1 ovarian
SK-OV-3 ovarian = system: SK-OV-3 ovarian
NCI-H460 lung = system: NCI-H460 lung
SNB-19 CNS = system: SNB-19 CNS
OVCAR-5 ovarian = system: OVCAR-5 ovarian
SW-620 colon = system: SW-620 colon
KM12 colon = system: KM12 colon
HCC-2998 colon = system: HCC-2998 colon
HCT-116 colon = system: HCT-116 colon
MDA-MB-435 = system: MDA-MB-435
SF-539 CNS = system: SF-539 CNS
CCRF-CEM leukemia = system: CCRF-CEM leukemia
BT-549 breast = system: BT-549 breast
NCI/ADR-RES ovarian = system: NCI/ADR-RES ovarian
SN12C renal = system: SN12C renal
SNB-75 CNS = system: SNB-75 CNS
LOX IMVI melanoma = system: LOX IMVI melanoma
HT29 colon = system: HT29 colon
U251 CNS = system: U251 CNS
RXF 393 renal = system: RXF 393 renal
T-47D breast = system: T-47D breast
OVCAR-4 ovarian = system: OVCAR-4 ovarian
MDA-MB-231 breast = system: MDA-MB-231 breast
SK-MEL-2 melanoma = system: SK-MEL-2 melanoma
HCT-15 colon = system: HCT-15 colon
OVCAR-3 ovarian = system: OVCAR-3 ovarian
PC-3 prostate = system: PC-3 prostate
MDA-MB-468 breast = system: MDA-MB-468 breast
MCF7 breast = system: MCF7 breast
A498 renal = system: A498 renal
HL-60(TB) leukemia = system: HL-60(TB) leukemia
TK-10 renal = system: TK-10 renal
EKVX NSCLC = system: EKVX NSCLC
CAKI-1 renal = system: CAKI-1 renal
SF-295 CNS = system: SF-295 CNS
786-0 renal = system: 786-0 renal
UACC-257 melanoma = system: UACC-257 melanoma
ACHN renal = system: ACHN renal
NCI-H522 lung = system: NCI-H522 lung

O=C1CCC(N2Cc3cc(CC(=O)Nc4ccc(N5CCCCC5)cc4)ccc3C2=O)C(=O)N1 (centres undefined)
GI50 (UO-31 renal): 0.0782 µM
TGI (UO-31 renal): > 100 µM
GI50 (NCI-H23 lung): > 100 µM
TGI (NCI-H23 lung): > 100 µM
GI50 (A549 NSCLC): 24.2 µM
TGI (A549 NSCLC): > 100 µM
GI50 (SF-268 CNS): 40.7 µM
TGI (SF-268 CNS): > 100 µM
GI50 (RPMI-8226 leukemia): 20.1 µM
TGI (RPMI-8226 leukemia): > 100 µM
GI50 (M14 melanoma): 0.432 µM
TGI (M14 melanoma): > 100 µM
GI50 (SR leukemia): > 100 µM
TGI (SR leukemia): > 100 µM
GI50 (HS 578T breast): < 0.0166 µM
TGI (HS 578T breast): > 100 µM
GI50 (MOLT-4 leukemia): < 0.01 µM
TGI (MOLT-4 leukemia): > 100 µM
GI50 (SK-MEL-5 melanoma): 1.76 µM
TGI (SK-MEL-5 melanoma): > 100 µM
GI50 (SK-MEL-28 melanoma): > 60.4 µM
TGI (SK-MEL-28 melanoma): > 100 µM
GI50 (NCI-H226 lung): 0.0398 µM
TGI (NCI-H226 lung): 23.3 µM
GI50 (COLO 205 colon): 0.0118 µM
TGI (COLO 205 colon): > 100 µM
GI50 (MALME-3M melanoma): < 0.01 µM
TGI (MALME-3M melanoma): 0.0124 µM
GI50 (OVCAR-8 ovarian): < 0.01 µM
TGI (OVCAR-8 ovarian): > 100 µM
GI50 (K-562 leukemia): > 56.1 µM
TGI (K-562 leukemia): > 100 µM
GI50 (HOP-62 NSCLC): < 0.01 µM
GI50 (UACC-62 melanoma): 36.3 µM
TGI (UACC-62 melanoma): > 100 µM
GI50 (DU-145 prostate): > 81.6 µM
TGI (DU-145 prostate): > 100 µM
GI50 (HOP-92 NSCLC): < 0.01 µM
TGI (HOP-92 NSCLC): > 100 µM
GI50 (IGROV1 ovarian): < 0.0104 µM
TGI (IGROV1 ovarian): > 100 µM
GI50 (SK-OV-3 ovarian): 12.9 µM
TGI (SK-OV-3 ovarian): > 100 µM
GI50 (NCI-H460 lung): > 100 µM
TGI (NCI-H460 lung): > 100 µM
GI50 (SNB-19 CNS): 0.0594 µM
TGI (SNB-19 CNS): > 100 µM
GI50 (OVCAR-5 ovarian): 0.24 µM
TGI (OVCAR-5 ovarian): > 100 µM
GI50 (SW-620 colon): < 0.0144 µM
TGI (SW-620 colon): > 100 µM
GI50 (KM12 colon): 2.37 µM
TGI (KM12 colon): > 100 µM
GI50 (HCC-2998 colon): 0.0174 µM
TGI (HCC-2998 colon): > 100 µM
GI50 (HCT-116 colon): > 100 µM
TGI (HCT-116 colon): > 100 µM
GI50 (MDA-MB-435): > 100 µM
TGI (MDA-MB-435): > 100 µM
GI50 (SF-539 CNS): 25.1 µM
TGI (SF-539 CNS): > 100 µM
GI50 (CCRF-CEM leukemia): < 0.01 µM
GI50 (BT-549 breast): < 0.01 µM
TGI (BT-549 breast): 0.927 µM
GI50 (NCI/ADR-RES ovarian): 4.34 µM
TGI (NCI/ADR-RES ovarian): > 100 µM
GI50 (SN12C renal): 0.632 µM
TGI (SN12C renal): > 90.8 µM
GI50 (SNB-75 CNS): 0.0288 µM
TGI (SNB-75 CNS): 99.2 µM
GI50 (LOX IMVI melanoma): > 100 µM
TGI (LOX IMVI melanoma): > 100 µM
GI50 (HT29 colon): 19 µM
TGI (HT29 colon): > 100 µM
GI50 (U251 CNS): 46.8 µM
TGI (U251 CNS): > 100 µM
GI50 (RXF 393 renal): 9.66 µM
TGI (RXF 393 renal): > 100 µM
GI50 (T-47D breast): < 0.01 µM
TGI (T-47D breast): > 100 µM
GI50 (OVCAR-4 ovarian): 23.4 µM
TGI (OVCAR-4 ovarian): > 100 µM
GI50 (MDA-MB-231 breast): < 0.01 µM
GI50 (SK-MEL-2 melanoma): 2.16 µM
TGI (SK-MEL-2 melanoma): > 100 µM
GI50 (HCT-15 colon): 0.0368 µM
TGI (HCT-15 colon): > 100 µM
GI50 (OVCAR-3 ovarian): 23.2 µM
TGI (OVCAR-3 ovarian): > 100 µM
GI50 (PC-3 prostate): < 0.0108 µM
TGI (PC-3 prostate): > 100 µM
GI50 (MDA-MB-468 breast): < 0.01 µM
TGI (MDA-MB-468 breast): < 0.0282 µM
GI50 (MCF7 breast): 12.4 µM
TGI (MCF7 breast): > 100 µM
GI50 (A498 renal): 0.164 µM
TGI (A498 renal): > 85.2 µM
GI50 (HL-60(TB) leukemia): < 0.01 µM
GI50 (TK-10 renal): 1.58 µM
TGI (TK-10 renal): > 100 µM
GI50 (EKVX NSCLC): > 34.5 µM
TGI (EKVX NSCLC): > 100 µM
GI50 (CAKI-1 renal): 2.06 µM
TGI (CAKI-1 renal): > 100 µM
GI50 (SF-295 CNS): > 96.3 µM
TGI (SF-295 CNS): > 100 µM
GI50 (786-0 renal): 1.43 µM
TGI (786-0 renal): > 100 µM
GI50 (UACC-257 melanoma): > 100 µM
TGI (UACC-257 melanoma): > 100 µM
GI50 (ACHN renal): > 100 µM
TGI (ACHN renal): > 100 µM
GI50 (NCI-H522 lung): > 72.9 µM
TGI (NCI-H522 lung): > 100 µM
